Test results from PubChem BioAssay AID488844 (Broad Institute, 2010).
Several values for one entry are separate records, joined by “and”; a condition that tells them apart may be missing. Identical values can stand only once. Activity calls are given as the source filed them.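 How the source made its calls: active means compounds raising protection with a fitted AC50 no more than tenfold their highest valid tested dose; inconclusive means flat curve with partial protection, or unreliable curve fit; inactive means the rest.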

Test system: INS-1E cytokine-induced death rescue, ATP luminescence, 48 h
Test: beta-cell survival under cytokine stress – INS-1E, ATP luminescence, dry powder, dose response (AID 488844)
Details: not given
For `Cc1ccc(S(=O)(=O)N(C)C[C@@H]2Oc3c(NC(=O)Nc4cccc5ccccc45)cccc3C(=O)N([C@H](C)CO)C[C@H]2C)cc1`, the AC50 was > 23.5 µM (inactive). For `C[C@@H]1CN([C@@H](C)CO)C(=O)c2cccc(NC(=O)Nc3cccc4ccccc34)c2O[C@H]1CN(C)S(=O)(=O)c1ccc2c(c1)OCCO2`, the AC50 was 1.62 µM and 4.81 µM. For `COc1ccc(S(=O)(=O)N(C)C[C@@H]2Oc3c(NC(=O)Nc4ccccc4)cccc3C(=O)N([C@@H](C)CO)C[C@H]2C)cc1`, the AC50 was > 26 µM (inactive).

Test system: not listed separately
Test: as above
Details: INS-1E cytokine-induced death rescue, ATP luminescence, 48 h; at 23.5 µM (top of the series)
With `COc1ccc(S(=O)(=O)N(C)C[C@@H]2Oc3c(NC(=O)C4CCOCC4)cccc3C(=O)N([C@@H](C)CO)C[C@H]2C)cc1` the protection from cytokine death was 6.47% (inactive). With `C[C@@H]1CN([C@@H](C)CO)C(=O)c2cccc(NC(=O)Nc3cccc4ccccc34)c2O[C@H]1CN(C)C(=O)Nc1ccc(C(F)(F)F)cc1` the protection from cytokine death was -33.2% (inactive). With `C[C@@H]1CN([C@@H](C)CO)C(=O)c2cccc(NC(=O)Nc3cccc4ccccc34)c2O[C@H]1CN(C)C(=O)Nc1ccccc1` the protection from cytokine death was -1.63% (inactive). For `COc1ccc(S(=O)(=O)N(C)C[C@@H]2Oc3c(NC(=O)C4CC4)cccc3C(=O)N([C@@H](C)CO)C[C@H]2C)cc1`, the protection from cytokine death was 1.51% (inactive). With `COc1ccc(S(=O)(=O)N(C)C[C@@H]2Oc3c(cccc3N(C)C)C(=O)N([C@@H](C)CO)C[C@H]2C)cc1` the protection from cytokine death was -5.24% (inactive).

Same assay, conditions: INS-1E cytokine-induced death rescue, ATP luminescence, 48 h; at 26 µM (top of the series)
For `C[C@@H]1CN([C@@H](C)CO)C(=O)c2cccc(NC(=O)Nc3cccc4ccccc34)c2O[C@H]1CN(C)S(=O)(=O)c1cn(C)cn1`, the protection from cytokine death was -7.7% (inactive). For `C[C@@H]1CN([C@@H](C)CO)C(=O)c2cccc(NC(=O)Nc3cccc4ccccc34)c2O[C@H]1CN(C)C(=O)Nc1ccc(F)cc1`, the protection from cytokine death was -27.4% (inactive). In the case of `Cc1noc(C)c1NC(=O)N(C)C[C@@H]1Oc2c(NC(=O)Nc3cccc4ccccc34)cccc2C(=O)N([C@@H](C)CO)C[C@H]1C`, the protection from cytokine death is reported as -14.9% (inactive). With `COc1ccc(S(=O)(=O)Nc2cccc3c2O[C@@H](CN(C)S(=O)(=O)c2ccc(OC)cc2)[C@H](C)CN([C@@H](C)CO)C3=O)cc1` the protection from cytokine death was -0.665% (inactive). In the case of `C[C@@H]1CN([C@@H](C)CO)C(=O)c2cccc(NC(=O)Nc3cccc4ccccc34)c2O[C@H]1CN(C)S(=O)(=O)c1ccc(OC(F)(F)F)cc1`, the protection from cytokine death is reported as -128% (inactive). With `C[C@@H]1CN([C@@H](C)CO)C(=O)c2cccc(NC(=O)Nc3cccc4ccccc34)c2O[C@H]1CN(C)S(=O)(=O)c1ccc2c(c1)oc(=O)n2C` the protection from cytokine death was 4.91% (inactive). For `Cc1ccc(S(=O)(=O)N(C)C[C@H]2Oc3c(NC(=O)Nc4cccc5ccccc45)cccc3C(=O)N([C@@H](C)CO)C[C@@H]2C)cc1`, the protection from cytokine death was -9.39% (inactive). For `COc1ccc(S(=O)(=O)N(C)C[C@@H]2Oc3c(NC(=O)c4nc5ccccc5s4)cccc3C(=O)N([C@@H](C)CO)C[C@H]2C)cc1`, the protection from cytokine death was -19.4% (inactive). With `COc1ccc(S(=O)(=O)N(C)C[C@@H]2Oc3c(NS(=O)(=O)c4ccccc4)cccc3C(=O)N([C@@H](C)CO)C[C@H]2C)cc1` the protection from cytokine death was 4.09% (inactive). For `COc1ccc(S(=O)(=O)N(C)C[C@@H]2Oc3c(NS(C)(=O)=O)cccc3C(=O)N([C@@H](C)CO)C[C@H]2C)cc1`, the protection from cytokine death was -4.24% (inactive). With `C[C@@H]1CN([C@@H](C)CO)C(=O)c2cccc(NC(=O)Nc3cccc4ccccc34)c2O[C@H]1CN(C)S(=O)(=O)c1ccccc1F` the protection from cytokine death was -7.82% (inactive). In the case of `CNC[C@@H]1Oc2c(NC(=O)Nc3cccc4ccccc34)cccc2C(=O)N([C@@H](C)CO)C[C@H]1C`, the protection from cytokine death is reported as -5.76% (inactive). With `COc1ccc(S(=O)(=O)N(C)C[C@@H]2Oc3c(NC(=O)Nc4c(C)noc4C)cccc3C(=O)N([C@@H](C)CO)C[C@H]2C)cc1` the protection from cytokine death was -2.07% (inactive). In the case of `C[C@@H]1CN([C@@H](C)CO)C(=O)c2cccc(NC(=O)Nc3cccc4ccccc34)c2O[C@H]1CN(C)S(=O)(=O)c1ccc2c(n1)N(C)CCO2`, the protection from cytokine death is reported as 22.7% (inactive). In the case of `COc1ccc(NC(=O)N(C)C[C@@H]2Oc3c(NC(=O)Nc4cccc5ccccc45)cccc3C(=O)N([C@@H](C)CO)C[C@H]2C)cc1`, the protection from cytokine death is reported as -28.7% (inactive). In the case of `COc1ccc(S(=O)(=O)N(C)C[C@@H]2Oc3c(NC(=O)C4CCCCC4)cccc3C(=O)N([C@@H](C)CO)C[C@H]2C)cc1`, the protection from cytokine death is reported as -8.99% (inactive). In the case of `COc1ccc(S(=O)(=O)N(C)C[C@@H]2Oc3c(NC(=O)Nc4ccc(C(F)(F)F)cc4)cccc3C(=O)N([C@@H](C)CO)C[C@H]2C)cc1`, the protection from cytokine death is reported as 7.51% (inactive). In the case of `C[C@@H]1CN([C@@H](C)CO)C(=O)c2cccc(NC(=O)Nc3cccc4ccccc34)c2O[C@H]1CN(C)S(=O)(=O)c1ccccc1`, the protection from cytokine death is reported as 16.5% (inactive). In the case of `COc1ccc(S(=O)(=O)N(C)C[C@@H]2Oc3c(NC(=O)c4ccc(-c5nccs5)cc4)cccc3C(=O)N([C@@H](C)CO)C[C@H]2C)cc1`, the protection from cytokine death is reported as 12.6% (inactive). In the case of `COc1ccc(S(=O)(=O)N(C)C[C@@H]2Oc3c(NS(=O)(=O)c4cn(C)cn4)cccc3C(=O)N([C@@H](C)CO)C[C@H]2C)cc1`, the protection from cytokine death is reported as -12.2% (inactive). For `COc1ccc(S(=O)(=O)N(C)C[C@@H]2Oc3c(NC(=O)c4cccc5ccccc45)cccc3C(=O)N([C@@H](C)CO)C[C@H]2C)cc1`, the protection from cytokine death was 1.13% (inactive). In the case of `C[C@H]1CN([C@@H](C)CO)C(=O)c2cccc(NC(=O)NC3CCCCC3)c2O[C@@H]1CN(C)S(C)(=O)=O`, the protection from cytokine death is reported as -7.31% (inactive). With `COc1ccc(S(=O)(=O)N(C)C[C@@H]2Oc3c(NC(=O)Nc4ccc5c(c4)OCO5)cccc3C(=O)N([C@@H](C)CO)C[C@H]2C)cc1` the protection from cytokine death was 9.8% (inactive). In the case of `COc1ccc(S(=O)(=O)N(C)C[C@@H]2Oc3c(NC(=O)NC4CCCCC4)cccc3C(=O)N([C@@H](C)CO)C[C@H]2C)cc1`, the protection from cytokine death is reported as 7.69% (inactive). In the case of `C[C@@H]1CN([C@@H](C)CO)C(=O)c2cccc(NC(=O)Nc3cccc4ccccc34)c2O[C@H]1CN(C)S(=O)(=O)c1cccc(F)c1`, the protection from cytokine death is reported as -13.6% (inactive). For `C[C@@H]1CN([C@@H](C)CO)C(=O)c2cccc(NC(=O)Nc3cccc4ccccc34)c2O[C@H]1CN(C)S(=O)(=O)c1cccs1`, the protection from cytokine death was -2.28% (inactive). For `COc1ccc(S(=O)(=O)N(C)C[C@@H]2Oc3c(NC(=O)NC(C)C)cccc3C(=O)N([C@@H](C)CO)C[C@H]2C)cc1`, the protection from cytokine death was -1.33% (inactive). For `COc1ccc(S(=O)(=O)N(C)C[C@@H]2Oc3c(NC(=O)Nc4cccc5ccccc45)cccc3C(=O)N([C@H](C)CO)C[C@@H]2C)cc1`, the protection from cytokine death was 13.8% (inactive). In the case of `C[C@@H]1CN([C@@H](C)CO)C(=O)c2cccc(NC(=O)Nc3cccc4ccccc34)c2O[C@H]1CN(C)S(C)(=O)=O`, the protection from cytokine death is reported as -4.98% (inactive). In the case of `COc1ccc(S(=O)(=O)N(C)C[C@@H]2Oc3c(NC(=O)c4ccncc4)cccc3C(=O)N([C@@H](C)CO)C[C@H]2C)cc1`, the protection from cytokine death is reported as 0.628% (inactive). For `C[C@@H]1CN([C@@H](C)CO)C(=O)c2cccc(NS(=O)(=O)c3ccccc3)c2O[C@H]1CN(C)Cc1ccc(C(F)(F)F)cc1`, the protection from cytokine death was -9.86% (inactive). For `COc1ccc(S(=O)(=O)N(C)C[C@@H]2Oc3ccc(NC(=O)Nc4cccc5ccccc45)cc3C(=O)N([C@@H](C)CO)C[C@H]2C)cc1`, the protection from cytokine death was -13.2% (inactive). With `C[C@@H]1CN([C@@H](C)CO)C(=O)c2cccc(NC(=O)Nc3cccc4ccccc34)c2O[C@H]1CN(C)C(=O)NC1CCCCC1` the protection from cytokine death was -35.9% (inactive). For `COc1ccc(S(=O)(=O)N(C)C[C@@H]2Oc3c(NS(=O)(=O)c4ccc(F)cc4)cccc3C(=O)N([C@@H](C)CO)C[C@H]2C)cc1`, the protection from cytokine death was 8.48% (inactive). In the case of `C[C@@H]1CN([C@@H](C)CO)C(=O)c2cccc(NC(=O)Nc3cccc4ccccc34)c2O[C@H]1CN(C)CC1CC1`, the protection from cytokine death is reported as -29.1% (inactive). In the case of `N#Cc1ccc2cc(Br)c(C(F)(F)P(=O)(O)O)cc2c1`, the protection from cytokine death is reported as -34.9% (inactive). In the case of `COc1ccccc1S(=O)(=O)N(C)C[C@@H]1Oc2c(NC(=O)Nc3cccc4ccccc34)cccc2C(=O)N([C@@H](C)CO)C[C@H]1C`, the protection from cytokine death is reported as -1.88% (inactive). In the case of `C[C@@H]1CN([C@@H](C)CO)C(=O)c2cccc(NC(=O)Nc3cccc4ccccc34)c2O[C@H]1CN(C)C(=O)Nc1ccc2c(c1)OCO2`, the protection from cytokine death is reported as -28.7% (inactive). In the case of `COc1ccc(S(=O)(=O)N(C)C[C@@H]2Oc3c(NC(=O)Nc4cccc5ccccc45)cccc3C(=O)N([C@@H](C)CO)C[C@H]2C)cc1OC`, the protection from cytokine death is reported as 34.5% (inactive). For `C[C@@H]1CN([C@@H](C)CO)C(=O)c2cccc(NC(=O)Nc3cccc4ccccc34)c2O[C@H]1CN(C)S(=O)(=O)c1ccc2c(c1)OCCCO2`, the protection from cytokine death was 25.8% (inactive). In the case of `COc1ccc(S(=O)(=O)N(C)C[C@@H]2Oc3c(NC(=O)c4cnccn4)cccc3C(=O)N([C@@H](C)CO)C[C@H]2C)cc1`, the protection from cytokine death is reported as 6.69% (inactive). With `COc1ccc(NC(=O)Nc2cccc3c2O[C@@H](CN(C)S(=O)(=O)c2ccc(OC)cc2)[C@H](C)CN([C@@H](C)CO)C3=O)cc1` the protection from cytokine death was 13.4% (inactive).
